# Molecular target: T1, polycystin-2 (Homo sapiens, UniProt Q13563)
# T1 construct: expressed in transfected cells
# T1 sequence (Q13563 1-968): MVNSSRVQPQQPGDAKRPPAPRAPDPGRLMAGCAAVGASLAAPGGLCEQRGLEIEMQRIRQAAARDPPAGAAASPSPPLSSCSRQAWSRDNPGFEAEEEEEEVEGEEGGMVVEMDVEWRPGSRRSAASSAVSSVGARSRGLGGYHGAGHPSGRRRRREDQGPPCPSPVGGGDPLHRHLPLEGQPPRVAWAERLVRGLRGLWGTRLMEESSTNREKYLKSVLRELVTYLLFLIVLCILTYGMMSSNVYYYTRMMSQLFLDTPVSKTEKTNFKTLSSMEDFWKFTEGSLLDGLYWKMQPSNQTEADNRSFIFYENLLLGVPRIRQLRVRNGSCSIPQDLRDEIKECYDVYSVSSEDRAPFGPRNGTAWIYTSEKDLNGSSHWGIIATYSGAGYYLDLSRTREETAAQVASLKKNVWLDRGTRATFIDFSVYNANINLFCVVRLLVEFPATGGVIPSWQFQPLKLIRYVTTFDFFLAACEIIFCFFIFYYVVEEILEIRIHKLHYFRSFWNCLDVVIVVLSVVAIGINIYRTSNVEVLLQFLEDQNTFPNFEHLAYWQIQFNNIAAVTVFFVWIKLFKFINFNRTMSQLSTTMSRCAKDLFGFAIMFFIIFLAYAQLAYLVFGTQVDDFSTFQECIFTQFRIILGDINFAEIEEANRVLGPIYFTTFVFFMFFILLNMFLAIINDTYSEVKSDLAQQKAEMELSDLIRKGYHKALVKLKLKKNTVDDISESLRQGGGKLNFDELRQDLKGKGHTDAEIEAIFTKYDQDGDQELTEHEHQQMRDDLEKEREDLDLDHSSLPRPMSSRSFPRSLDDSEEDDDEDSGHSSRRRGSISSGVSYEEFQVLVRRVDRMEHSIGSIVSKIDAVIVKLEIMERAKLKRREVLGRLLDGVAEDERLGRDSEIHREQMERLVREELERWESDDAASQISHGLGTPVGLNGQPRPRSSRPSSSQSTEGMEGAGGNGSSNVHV
# Assay: Inside-out cilia patch of HEK cells, voltage dependent channel opening at low and high intraciliary Ca2+
# Format: cell-based
# Settings: from low (100 nM) to high (100 μM) Ca2+, WT channels
# Description: To test whether calcium occupancy of the EF hand is responsible for CDM and CDD of human polycystin-2, we generated double alanine mutations at the −X ([…]) and −Z vertices (E774A) which abolished Ca^2+ affinity for the CTD fragment (FIG. 17B). We then expressed the −X-Z double mutation in PKD2-GFP in a PKD2^null HEK cell line, so that exogenous channels could be assayed without the contribution of endogenous PKD2 alleles, as previously described (Vien et al., 2020). The stably expressed human WT and −X-Z channels trafficked to the primary cilia, and glass electrodes with submicron apertures were fabricated to form high resistance electrical seals with the GFP-illuminated cilia membranes (FIG. 18A). […] These experiments were performed with only one channel present in the membrane, so that stochastic effects on single channel states could be determined. […]
# Electrophysiology. The electrophysiologist was blinded by a third party in the laboratory, where test groups were assigned a letter to conceal the genetic identity of the cells being evaluated. […] Ciliary ion currents were recorded using borosilicate glass electrodes polished to resistances of 14-23 MΩ using the cilium patch method previously described (Vien et al., 2020). Single channel currents measured in the inside-out configuration were recorded in symmetrical sodium concentrations. […]
structure (smiles),measurement,value
"[Ca+2] [Ca^2+, calcium]",Shift in the voltage-dependence of half maximal open probability (V1/2),−47 mV
